Peptide text beside a SMILES is read from it. * marks the point of attachment. Hydrocinnamoyl = O=C(CCc1ccccc1)*; PhAc = O=C(Cc1ccccc1)*
Columns and labels:
[1] = molecular target: prolyl endopeptidase (Elizabethkingia meningoseptica, UniProt P27028); experiment: Measurement of anti-prolyl endopeptidase activity (decomposition of Z-glycyl-prolyl-β-naphthylamide); type: biochemical; conditions: substrate Z-glycyl-proline-β-naphthylamide, phosphate buffer pH 7.0
Method: The method of Yoshimoto and Tsuru (T. Yoshimoto and D. Tsuru, Agr. Biol. Chem. 42, 2417, 1978) was used to measure the anti-prolyl endopeptidase activities of several compounds according to the present invention. A mixture of 0.0025M Z--glycyl--proline--β--naphthylamide (0.25 ml), 0.1M phosphate buffer (pH 7.0; 0.99 ml) and a solution of a particular anti-prolyl endopeptidase compound (0.01 ml) was incubated in a test tube at 37° C. for 3 minutes. Thereafter […] of a solution of prolyl endopeptidase (0.2 U/ml) was added and the mixture was heated at 35° C. for 10 minutes. After the reaction, 2.0 ml of Triton x-100 in 1M acetate buffer (pH 4.0) was added to the reaction mixture until the final concentration of the surfactant was 10%. The mixture was left at a room temperature for 15 minutes and the absorbance (a) at 410 nm was measured.
A sample for a blind test was prepared by using the buffer solely in place of the anti-prolyl endopeptidase compound and its absorbance (b) was also measured. The percent inhibition of prolyl endopeptidase was calculated by the formula: [(b-a)/b]×100, and the amount of a specific compound needed to achieve 50% inhibition (IC50) was determined.

[2] = test system: Male mice of ddY-strain; experiment: Anti-hypoxia effect (survival time at 180 mmHg); type: in vivo; conditions: for No. of survival/used, Drug / Survival time, Drug (Mean ± S.E.): mice, 180 mmHg
Method: Male mice of ddY-strain weighing 25 to 34 g were allotted to groups consisting of 7 to 10 animals each. Each compound to be tested was suspended in physiological saline with 2 to 3 drops of Tween 80® added thereto, and administered intraperitoneally at the rate of 0.1 ml per 10 g of body weight.
Each mouse was put into a 1 l desiccator 30 minutes after the administration, and the pressure in the desiccator was reduced to 180 mmHg by means of a vacuum pump. The period from the start of pressure reduction to the respiratory arrest of the mouse was assumed to be the survival time (minute) of the mouse.
If the mouse survived more than 15 minutes, its survival time was recorded as being 15 minutes. A student's t-test was adopted for the significance analysis.

[3] = test system: Experimental Amnesia caused in Rats by Scopolamine; experiment: Preventive effect against experimental amnesia caused in rats by scopolamine (passive avoidance, intraperitoneal administration); type: in vivo, Wister male rats; conditions: for No. of amnesic rats/No. of rats tested / Percentage amnesia / Avoidance time After 24 hrs. / Avoidance time After 48 hrs.: i.p., scopolamine 3 mg/kg i.p.
Method: Several of the anti-prolyl endopeptidase compounds according to the present invention were checked for their ability to prevent the inhibition of long-term memory fixation by scopolamine. […] One hour after the administration, electric shocks were applied to the rats so that they would acquire passive avoidance learning. Immediately thereafter, scopolamine was administered intraperitoneally to each rat in an amount of 3 mg per kg of body weight.
The results of the test were assessed both 24 hours and 48 hours after the administration of scopolamine. The number of amnesic rats and of sound rats was counted for each of the control group (rats to which the test compounds were not administered but to which only scopolamine and physiological saline were administered intraperitoneally) and the treated group (rats to which both the test compound and scopolamine were administered).

[4] = test system: CDF-1 strain male mice; experiment: Acute toxicity test in mice; type: in vivo; conditions: i.p. in DMSO, five mice per group, observed 24 and 48 hours after administration
Method: The compounds of the present invention were checked for their acute toxicity in CDF-1 strain male mice (body weight: 27.2 to 30.1 g) purchased from Awazu Laboratory Animals Co., Ltd.
Test samples were prepared by dissolving the respective compounds in DMSO, and a portion (0.1 ml) of the so conditioned test sample was administered intraperitoneally to each of the mice used. Each of the treated groups consisted of five mice. After 24 hours and 48 hours had passed from the time of administration, respectively, the mice were observed.

Chain of prolyl endopeptidase (P27028 21-705): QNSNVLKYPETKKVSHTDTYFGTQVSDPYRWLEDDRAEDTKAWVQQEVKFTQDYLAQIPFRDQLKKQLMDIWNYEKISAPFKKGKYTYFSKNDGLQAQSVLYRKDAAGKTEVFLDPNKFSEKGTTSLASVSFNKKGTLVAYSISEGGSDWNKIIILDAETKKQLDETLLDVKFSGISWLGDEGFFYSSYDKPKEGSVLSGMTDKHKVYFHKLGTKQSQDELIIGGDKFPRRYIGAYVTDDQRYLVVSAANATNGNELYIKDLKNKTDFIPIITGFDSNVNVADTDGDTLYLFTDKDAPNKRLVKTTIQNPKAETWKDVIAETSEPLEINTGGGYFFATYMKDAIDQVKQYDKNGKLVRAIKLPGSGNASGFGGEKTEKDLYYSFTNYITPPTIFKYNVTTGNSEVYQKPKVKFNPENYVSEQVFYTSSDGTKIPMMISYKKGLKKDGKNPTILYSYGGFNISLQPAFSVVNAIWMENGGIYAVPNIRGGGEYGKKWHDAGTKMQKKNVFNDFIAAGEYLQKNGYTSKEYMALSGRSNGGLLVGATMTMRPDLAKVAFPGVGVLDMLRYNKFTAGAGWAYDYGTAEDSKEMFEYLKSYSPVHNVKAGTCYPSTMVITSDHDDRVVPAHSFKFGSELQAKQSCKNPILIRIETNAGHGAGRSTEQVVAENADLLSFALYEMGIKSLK

SMILES: O=C[C@@H]1CCCN1C(=O)[C@H](Cc1ccccc1)NC(=O)CCCc1ccccc1 [SUAM 1234, N--(4-phenyl)butanoyl--Phe--Pro--CHO]
- IC50 (amount needed to achieve 50% inhibition of prolyl endopeptidase) [1]: 0.3 ng/test tube
- Survival time Ratio (Drug/Control) ([2]; 1 mg/kg i.p.): 1.24
- No. of survival/used, Drug ([2]; 1 mg/kg i.p.): 0/7
- Survival time, Drug (Mean ± S.E.) ([2]; 1 mg/kg i.p., control 2.32 ± 0.11, *P < 0.05): 2.88 ± 0.17 min
- Survival time Ratio (Drug/Control) ([2]; 10 mg/kg i.p.): 1.09
- No. of survival/used, Drug ([2]; 10 mg/kg i.p.): 0/7
- Survival time, Drug (Mean ± S.E.) ([2]; 10 mg/kg i.p., control 2.25 ± 0.15): 2.45 min

SMILES: O=C[C@@H]1CCCN1C(=O)[C@@H]1CCCN1C(=O)Cc1ccccc1 [SUAM 1336, N--(2-phenyl)acetyl--Pro--Pro--CHO] (PhAc-Pro-Pro-aldehyde)
- IC50 (amount needed to achieve 50% inhibition of prolyl endopeptidase) [1]: 1.0 ng/test tube

SMILES: CC(C)CC(NC(=O)CCCc1ccccc1)C(=O)N1CCCC1C=O (stereo not shown) [SUAM 1115, N--(4-phenyl)butanoyl--Leu--Pro--CHO]
- IC50 (amount needed to achieve 50% inhibition of prolyl endopeptidase) [1]: 0.3 ng/test tube
- No. of amnesic rats/No. of rats tested ([3]; 25 μg/kg): 0/10
- Percentage amnesia ([3]; 25 μg/kg): 0
- Avoidance time After 24 hrs. ([3]; 25 μg/kg): 300.0 s
- Avoidance time After 48 hrs. ([3]; 25 μg/kg): 300.0 s
- anti-amnesic effect (in words) ([3]; 0.025 mg/kg administered): very strong effects
- No. of amnesic rats/No. of rats tested ([3]; 100 μg/kg): 0/10
- Percentage amnesia ([3]; 100 μg/kg): 0
- Avoidance time After 24 hrs. ([3]; 100 μg/kg): 300.0 s
- Avoidance time After 48 hrs. ([3]; 100 μg/kg): 300.0 s
- anti-amnesic effect (in words) ([3]; 0.1 mg/kg administered): very strong effects
- No. of amnesic rats/No. of rats tested ([3]; 250 μg/kg): 3/10
- Percentage amnesia ([3]; 250 μg/kg): 30
- Avoidance time After 24 hrs. ([3]; 250 μg/kg): 193.2 s
- Avoidance time After 48 hrs. ([3]; 250 μg/kg): 217.1 s
- anti-amnesic effect (in words) ([3]; administration of 1 mg/kg): did not manifest the desired effect

SMILES: CC(C)[C@H](NC(=O)CCCc1ccccc1)C(=O)N1CCC[C@H]1C=O [SUAM 1117, N--(4-phenyl)butanoyl--Val--Pro--CHO]
- IC50 (amount needed to achieve 50% inhibition of prolyl endopeptidase) [1]: 0.2 ng/test tube
- No. of amnesic rats/No. of rats tested ([3]; 25 μg/kg): 1/10
- Percentage amnesia ([3]; 25 μg/kg): 10
- Avoidance time After 24 hrs. ([3]; 25 μg/kg): 300.0 s
- Avoidance time After 48 hrs. ([3]; 25 μg/kg): 289.5 s
- anti-amnesic effect (in words) ([3]; 0.025 mg/kg administered): very strong effects
- No. of amnesic rats/No. of rats tested ([3]; 100 μg/kg): 0/10
- Percentage amnesia ([3]; 100 μg/kg): 0
- Avoidance time After 24 hrs. ([3]; 100 μg/kg): 300.0 s
- Avoidance time After 48 hrs. ([3]; 100 μg/kg): 300.0 s
- anti-amnesic effect (in words) ([3]; 0.1 mg/kg administered): very strong effects
- No. of amnesic rats/No. of rats tested ([3]; 250 μg/kg): 4/10
- Percentage amnesia ([3]; 250 μg/kg): 40
- Avoidance time After 24 hrs. ([3]; 250 μg/kg): 232.0 s
- Avoidance time After 48 hrs. ([3]; 250 μg/kg): 194.4 s
- No. of amnesic rats/No. of rats tested ([3]; 1 mg/kg): 6/10
- Percentage amnesia ([3]; 1 mg/kg): 60
- Avoidance time After 24 hrs. ([3]; 1 mg/kg): 161.6 s
- Avoidance time After 48 hrs. ([3]; 1 mg/kg): 125.0 s
- anti-amnesic effect (in words) ([3]; administration of 1 mg/kg): did not manifest the desired effect

SMILES: O=C[C@@H]1CCCN1C(=O)[C@@H]1CCCN1C(=O)CCCCc1ccccc1 [SUAM 1342, N--(5-phenyl)pentanoyl--Pro--Pro--CHO]
- IC50 (amount needed to achieve 50% inhibition of prolyl endopeptidase) [1]: 0.2 ng/test tube

SMILES: CSCC[C@H](NC(=O)CCCc1ccccc1)C(=O)N1CCC[C@H]1C=O [SUAM 1345, N--(4-phenyl)butanoyl--Met--Pro--CHO]
- IC50 (amount needed to achieve 50% inhibition of prolyl endopeptidase) [1]: 0.7 ng/test tube

SMILES: O=C[C@@H]1CCCN1C(=O)[C@@H]1CCCN1C(=O)CCCc1ccccc1 [SUAM 1231, N--(4-phenyl)butanoyl--Pro--Pro--CHO]
- IC50 (amount needed to achieve 50% inhibition of prolyl endopeptidase) [1]: 0.2 ng/test tube
- No. of amnesic rats/No. of rats tested ([3]; 20 μg/kg): 0/10
- Percentage amnesia ([3]; 20 μg/kg): 0
- Avoidance time After 24 hrs. ([3]; 20 μg/kg): 300.0 s
- anti-amnesic effect (in words) ([3]; at 0.020 mg/kg): strong effect
- Average-Dose at which the mice remained sound and showed no sign of intoxication [4]: 634.6 mg/kg

SMILES: C[C@H](NC(=O)CCCc1ccccc1)C(=O)N1CCC[C@H]1C=O [SUAM 1110, N--(4-phenyl)butanoyl--Ala--Pro--CHO]
- anti-amnesic effect (in words) ([3]; 0.025 mg/kg administered): very strong effects
- anti-amnesic effect (in words) ([3]; 0.1 mg/kg administered): very strong effects
- No. of amnesic rats/No. of rats tested ([3]; 250 μg/kg): 0/10
- Percentage amnesia ([3]; 250 μg/kg): 0
- Avoidance time After 24 hrs. ([3]; 250 μg/kg): 300.0 s
- Avoidance time After 48 hrs. ([3]; 250 μg/kg): 300.0 s
- No. of amnesic rats/No. of rats tested ([3]; 1 mg/kg): 1/10
- Percentage amnesia ([3]; 1 mg/kg): 10
- Avoidance time After 24 hrs. ([3]; 1 mg/kg): 272.8 s
- Avoidance time After 48 hrs. ([3]; 1 mg/kg): 271.2 s
- anti-amnesic effect (in words) ([3]; administration of 1 mg/kg): did not manifest the desired effect

SMILES: O=C[C@@H]1CCCN1C(=O)[C@@H]1CCCN1C(=O)CCc1ccccc1 [SUAM 1339, N--(3-phenyl)propionyl--Pro--Pro--CHO] (Hydrocinnamoyl-Pro-Pro-aldehyde)
- IC50 (amount needed to achieve 50% inhibition of prolyl endopeptidase) [1]: 0.4 ng/test tube

SMILES: CCCCC(NC(=O)CCCc1ccccc1)C(=O)N1CCCC1C=O (stereo not shown) [SUAM 1333, N--(4-phenyl)butanoyl--norLeu--Pro--CHO]
- IC50 (amount needed to achieve 50% inhibition of prolyl endopeptidase) [1]: 0.4 ng/test tube
- No. of amnesic rats/No. of rats tested ([3]; 20 μg/kg): 0/10
- Percentage amnesia ([3]; 20 μg/kg): 0
- Avoidance time After 24 hrs. ([3]; 20 μg/kg): 300.0 s
- anti-amnesic effect (in words) ([3]; at 0.020 mg/kg): strong effect
- Average-Dose at which the mice remained sound and showed no sign of intoxication [4]: 707.7 mg/kg

Reference: patent US4873342A, “Dipeptide derivative and synthesis and use thereof” (Suntory Limited, priority 1985, dated 1989)
